# Results published in patent US5674849A, “Anti-viral compositions” (priority 1995, dated 1997).
# Tested on: HIV-1 strain NL4-3
# Assay: p24 antigen inhibition in HIV-1 infected HUT-78 cells
# Type: cell-based
# Details: for Expected % inhibition: assuming additive effect; for Observed % inhibition: p24, day 9
# Experimental: Control cells were pretreated in 3.5 ml maintenance media under the same conditions.
# The tubes were centrifuged at 1200 rpm for 5 minutes to pellet the cells and each pellet was resuspended in 1 ml of stock HIV-1 strain NL4-3 (obtained from AIDS Research and Reference Reagent Program, Rockville, Md.) to obtain an MOI (multiplicity of infection) of about 0.05. The cells were incubated at 37° C. for 1 hour to allow viral adsorption to occur. […] These cells were centrifuged as above, the resulting pellets were resuspended in 1 ml of media and incubated for 1 hour at 37° C.
# AZT (Burroughs Wellcome Co.) thawed from sterile stock aliquots was serially diluted in media and dispensed at a volume of 100 μl per well of microtiter plate for the cytotoxicity control wells, compound color control wells and the test wells. Treated and untreated infected and uninfected cells were dispensed at a volume of 100 μl per well. […]
# The plates were incubated by 37° C. in 5% CO2.
# On the 9th day, 20 μl supernatant was removed from above settled cells in the Test, Virus Control and Cell Control wells. The supernatant was assayed for the presence of p24 antigen using a Coulter Corporation p24 Antigen Test Kit in accordance with the manufacturter's directions.
# % Observed Inhibition=[(VC-Test)/(VC)]×100
# where VC is the mean p24 of the Virus Control wells; and
# Test in the mean p24 of the Test wells.
# % Expected Inhibition=X+Y(100-X)
# Y is observed % inhibition of AZT.
smiles,measurement,setting,value
"CC(=O)N[C@H](CCCNC(=N)N)C(=O)N[C@H](CCCNC(=N)N)C(=O)N[C@H](CCCNC(=N)N)C(=O)N[C@H](CCCNC(=N)N)C(=O)N[C@H](CCCNC(=N)N)C(=O)N[C@H](CCCNC(=N)N)C(=O)N[C@H](CCCNC(=N)N)C(=O)N[C@H](CCCNC(=N)N)C(=O)N[C@H](CCCNC(=N)N)C(N)=O [4C, acetyl-[D-Arg]9 -NH2]",Expected % inhibition,"AZT 0 nM, 4C 0.001 μM",-412.7%
same,Observed % inhibition,"AZT 0 nM, 4C 0.001 μM",-412.7%
same,Expected % inhibition,"AZT 0 nM, 4C 0.003 μM",-256.2%
same,Observed % inhibition,"AZT 0 nM, 4C 0.003 μM",-256.2%
same,Expected % inhibition,"AZT 0 nM, 4C 0.01 μM",-22.8%
same,Observed % inhibition,"AZT 0 nM, 4C 0.01 μM",-22.8%
same,Expected % inhibition,"AZT 0 nM, 4C 0.03 μM",5.9%
same,Observed % inhibition,"AZT 0 nM, 4C 0.03 μM",5.9%
same,Expected % inhibition,"AZT 0 nM, 4C 0.1 μM",-177.0%
same,Observed % inhibition,"AZT 0 nM, 4C 0.1 μM",-177.0%
same,Expected % inhibition,"AZT 0 nM, 4C 0.3 μM",25.5%
same,Observed % inhibition,"AZT 0 nM, 4C 0.3 μM",25.5%
same,Expected % inhibition,"AZT 0 nM, 4C 10 μM",21.9%
same,Observed % inhibition,"AZT 0 nM, 4C 10 μM",21.9%
same,Expected % inhibition,"AZT 0 nM, 4C 30 μM",26.5%
same,Observed % inhibition,"AZT 0 nM, 4C 30 μM",26.5%
"Cc1cn([C@H]2C[C@H](N=[N+]=[N-])[C@@H](CO)O2)c(=O)[nH]c1=O [AZT, azidothymidine, reference compound]",Expected % inhibition,"AZT 10 nM, 4C 0 μM",-406.1%
same,Observed % inhibition,"AZT 10 nM, 4C 0 μM",-406.1%
same,Expected % inhibition,"AZT 30 nM, 4C 0 μM",-437.4%
same,Observed % inhibition,"AZT 30 nM, 4C 0 μM",-437.4%
same,Expected % inhibition,"AZT 100 nM, 4C 0 μM",-14.2%
same,Observed % inhibition,"AZT 100 nM, 4C 0 μM",-14.2%
same,Expected % inhibition,"AZT 300 nM, 4C 0 μM",-9.8%
same,Observed % inhibition,"AZT 300 nM, 4C 0 μM",-9.8%
same,Expected % inhibition,"AZT 1000 nM, 4C 0 μM",-7.7%
same,Observed % inhibition,"AZT 1000 nM, 4C 0 μM",-7.7%
